Source: patent US12559506B2, “Indazole based compounds and associated methods of use” (Arvinas Operations, Inc., priority 2021, dated 2026)
Like-named read-outs stand apart in the source and are kept apart here.

Biological target: T1, LRRK2 (endogenous, HiBit tagged) (Homo sapiens, UniProt Q5S007)
T1 construct: endogenous in cells; host or cells: HEK293 cells with HiBit knock-in at the endogenous LRRK2 locus, stably expressing firefly luciferase
Test: Endogenous LRRK2 degradation assay, endogenous gene C-terminally HiBit-tagged in HEK293 cells (Nano-Glo Dual Luciferase)
Assay type: cell-based
In short: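 LRRK2-HiBit quantified via Nano-Glo Dual Luciferase in HEK293 knock-in cells co-expressing firefly luciferase, after 24 h exposure to compound (1 μM final top, 1:3, 11 points). Values normalised to DMSO median per plate and curve-fitted; Alamar Blue viability run alongside.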

[1] = endogenous HiBit-tagged LRRK2 in HEK293 cells, 24 hours treatment, read-out: **Endogenous WT Dmax (%)
[2] = endogenous HiBit-tagged LRRK2 in HEK293 cells, 24 hours treatment, read-out: *Endogenous WT DC50
[3] = endogenous HiBit-tagged LRRK2 in HEK293 cells, 24 hours treatment, read-out: Endogenous WT DC50
[4] = endogenous HiBit-tagged LRRK2 in HEK293 cells, 24 hours treatment, read-out: Endogenous WT Dmax
[5] = endogenous HiBit-tagged LRRK2, HEK293 cells, 24 hours, read-out: **Endogenous WT Dmax (%)
[6] = endogenous HiBit-tagged LRRK2, HEK293 cells, 24 hours, read-out: *Endogenous WT DC50

T1 sequence (Q5S007 whole entry): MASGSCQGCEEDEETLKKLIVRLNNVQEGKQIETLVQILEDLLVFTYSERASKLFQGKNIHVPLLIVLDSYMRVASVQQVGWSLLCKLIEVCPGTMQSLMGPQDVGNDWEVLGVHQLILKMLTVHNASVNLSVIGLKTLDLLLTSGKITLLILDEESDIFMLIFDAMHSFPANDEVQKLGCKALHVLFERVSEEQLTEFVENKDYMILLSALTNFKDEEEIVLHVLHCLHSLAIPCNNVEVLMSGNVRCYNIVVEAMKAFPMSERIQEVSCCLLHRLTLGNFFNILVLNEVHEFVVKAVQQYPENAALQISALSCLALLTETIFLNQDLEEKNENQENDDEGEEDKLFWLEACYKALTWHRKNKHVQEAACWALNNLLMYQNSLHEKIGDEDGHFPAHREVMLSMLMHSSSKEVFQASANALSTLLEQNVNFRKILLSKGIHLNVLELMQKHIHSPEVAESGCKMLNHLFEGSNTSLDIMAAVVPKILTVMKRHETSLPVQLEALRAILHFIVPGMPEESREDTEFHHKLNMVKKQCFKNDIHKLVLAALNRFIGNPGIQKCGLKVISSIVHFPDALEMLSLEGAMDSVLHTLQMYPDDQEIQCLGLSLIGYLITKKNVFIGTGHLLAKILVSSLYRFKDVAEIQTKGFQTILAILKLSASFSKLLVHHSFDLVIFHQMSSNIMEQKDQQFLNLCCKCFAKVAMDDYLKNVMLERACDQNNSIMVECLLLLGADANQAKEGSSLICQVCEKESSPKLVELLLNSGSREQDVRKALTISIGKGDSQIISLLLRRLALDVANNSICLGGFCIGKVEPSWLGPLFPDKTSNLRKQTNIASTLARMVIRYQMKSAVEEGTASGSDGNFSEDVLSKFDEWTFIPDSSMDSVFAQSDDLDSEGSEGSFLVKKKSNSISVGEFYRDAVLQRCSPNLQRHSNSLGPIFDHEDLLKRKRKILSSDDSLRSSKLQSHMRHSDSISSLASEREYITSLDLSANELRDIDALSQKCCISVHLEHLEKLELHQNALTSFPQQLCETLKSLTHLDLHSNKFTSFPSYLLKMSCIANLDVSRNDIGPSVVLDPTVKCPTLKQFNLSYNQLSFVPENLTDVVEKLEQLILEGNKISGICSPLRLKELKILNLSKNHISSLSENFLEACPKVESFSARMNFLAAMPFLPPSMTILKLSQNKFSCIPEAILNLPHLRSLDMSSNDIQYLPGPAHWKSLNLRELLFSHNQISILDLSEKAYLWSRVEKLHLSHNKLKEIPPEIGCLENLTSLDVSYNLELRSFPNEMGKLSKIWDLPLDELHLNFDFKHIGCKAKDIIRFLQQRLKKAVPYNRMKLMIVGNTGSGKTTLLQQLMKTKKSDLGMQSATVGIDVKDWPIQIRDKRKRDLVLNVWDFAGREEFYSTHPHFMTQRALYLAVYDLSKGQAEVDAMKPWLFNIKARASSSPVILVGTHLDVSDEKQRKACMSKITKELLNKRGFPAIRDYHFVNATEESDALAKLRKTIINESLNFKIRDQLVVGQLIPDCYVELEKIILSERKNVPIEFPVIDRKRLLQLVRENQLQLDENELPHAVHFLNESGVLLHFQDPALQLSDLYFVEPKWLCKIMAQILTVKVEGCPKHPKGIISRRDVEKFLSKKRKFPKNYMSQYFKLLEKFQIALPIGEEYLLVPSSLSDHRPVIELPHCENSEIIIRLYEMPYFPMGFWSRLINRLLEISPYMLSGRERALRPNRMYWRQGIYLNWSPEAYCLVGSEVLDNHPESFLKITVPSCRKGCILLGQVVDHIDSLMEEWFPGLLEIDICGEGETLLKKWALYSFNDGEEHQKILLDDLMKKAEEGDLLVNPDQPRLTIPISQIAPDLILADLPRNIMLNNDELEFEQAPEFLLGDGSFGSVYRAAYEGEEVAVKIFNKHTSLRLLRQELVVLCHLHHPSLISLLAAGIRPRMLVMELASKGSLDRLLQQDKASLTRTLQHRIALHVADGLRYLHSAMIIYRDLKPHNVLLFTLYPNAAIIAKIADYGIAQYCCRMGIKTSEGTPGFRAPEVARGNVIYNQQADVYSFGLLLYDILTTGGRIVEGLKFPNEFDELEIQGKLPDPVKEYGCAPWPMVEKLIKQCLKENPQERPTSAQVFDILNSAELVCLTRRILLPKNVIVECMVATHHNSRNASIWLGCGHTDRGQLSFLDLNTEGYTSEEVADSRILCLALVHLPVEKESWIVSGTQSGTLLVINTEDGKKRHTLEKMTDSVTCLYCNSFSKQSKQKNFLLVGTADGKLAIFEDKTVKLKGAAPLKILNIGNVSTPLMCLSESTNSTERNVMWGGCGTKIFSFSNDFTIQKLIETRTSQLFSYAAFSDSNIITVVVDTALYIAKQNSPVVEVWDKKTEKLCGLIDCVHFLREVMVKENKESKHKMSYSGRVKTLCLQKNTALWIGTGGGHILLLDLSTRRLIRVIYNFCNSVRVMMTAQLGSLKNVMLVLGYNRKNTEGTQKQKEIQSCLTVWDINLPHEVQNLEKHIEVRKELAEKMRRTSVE

Row | SMILES | Dmax [1] [%] | DC50 [2] [nM] | other results
1 | CC1(Oc2ccc3n[nH]c(-c4cc(N5CCC(O[C@H]6C[C@H](N7CC[C@@H](c8ccc9c(c8F)CN(C8CCC(=O)NC8=O)C9=O)[C@@H](F)C7)C6)CC5)ncn4)c3c2)CC1 (stereo partly shown) [Compound 297, 3-{4-fluoro-5-[(3r,4s)-3-fluoro-1-[(1r,3r)-3-[(1-{6-[5-(1-methylcyclopropoxy)-2H-indazol-3-yl]pyrimidin-4-yl}piperidin-4-yl)oxy]cyclobutyl]piperidin-4-yl]-1-oxo-2,3-dihydro-1H-isoindol-2-yl}piperidine-2,6-dione] | 50 to 70 | < 10 | –
2 | COc1c(C2CCN([C@H]3C[C@H](OC4CCN(c5cc(-c6[nH]nc7ccc(OC8(C)CC8)cc67)ncn5)CC4)C3)CC2)ccc2c1CN(C1CCC(=O)NC1=O)C2=O (stereo partly shown) [Compound 329, 3-(4-methoxy-1-oxo-5-{1-[(1r,3r)-3-[(1-{6-[5-(1-methylcyclopropoxy)-2H-indazol-3-yl]pyrimidin-4-yl}piperidin-4-yl)oxy]cyclobutyl]piperidin-4-yl}-2,3-dihydro-1H-isoindol-2-yl)piperidine-2,6-dione] | 50 to 70 | < 10 | –
3 | COc1c(N2CCC(CN3CCN(CC4CCN(c5cc(-c6n[nH]c7ccc(OC8(C)CC8)cc67)ncn5)CC4)[C@H](C)C3)CC2)ccc2c1CN(C1CCC(=O)NC1=O)C2=O (stereo partly drawn) [Compound 255, 3-[4-methoxy-5-(4-{[(3R)-3-methyl-4-[(1-{6-[5-(1-methylcyclopropoxy)-1H-indazol-3-yl]pyrimidin-4-yl}piperidin-4-yl)methyl]piperazin-1-yl]methyl}piperidin-1-yl)-1-oxo-2,3-dihydro-1H-isoindol-2-yl]piperidine-2,6-dione] | – | – | DC50 [3]: < 10 nM; Dmax [4]: 50 to 70%
4 | COc1c(N2CCC(O[C@H]3CC[C@H](OC4CCN(c5cc(-c6n[nH]c7ccc(OC8(C)CC8)cc67)ncn5)CC4)CC3)CC2)ccc2c1CN(C1CCC(=O)NC1=O)C2=O (stereo partly shown) [Compound 248, 3-[4-methoxy-1-oxo-5-(4-{[(1r,4r)-4-[(1-{6-[5-(1-methylcyclopropoxy)-1H-indazol-3-yl]pyrimidin-4-yl}piperidin-4-yl)oxy]cyclohexyl]oxy}piperidin-1-yl)-2,3-dihydro-1H-isoindol-2-yl]piperidine-2,6-dione] | – | – | DC50 [3]: < 10 nM; Dmax [4]: 50 to 70%
5 | COc1c(N2CCC(CN3CCN(C[C@H]4CCN(c5cc(-c6n[nH]c7ccc(OC8(C)CC8)cc67)ncn5)C4)CC3)CC2)ccc2c1CN(C1CCC(=O)NC1=O)C2=O (stereo partly drawn) [Compound 303, 3-(4-methoxy-5-{4-[(4-{[(3R)-1-{6-[5-(1-methylcyclopropoxy)-1H-indazol-3-yl]pyrimidin-4-yl}pyrrolidin-3-yl]methyl}piperazin-1-yl)methyl]piperidin-1-yl}-1-oxo-2,3-dihydro-1H-isoindol-2-yl)piperidine-2,6-dione] | 50 to 70 | < 10 | –
6 | CC1(Oc2ccc3[nH]nc(-c4cc(N5CCC(C(C)(C)N6CCN(CC7CCN(c8ccc9c(c8F)CN(C8CCC(=O)NC8=O)C9=O)CC7)CC6)CC5)ncn4)c3c2)CC1 (stereo not shown) [Compound 320, 3-{4-fluoro-5-[4-({4-[2-(1-{6-[5-(1-methylcyclopropoxy)-1H-indazol-3-yl]pyrimidin-4-yl}piperidin-4-yl)propan-2-yl]piperazin-1-yl}methyl)piperidin-1-yl]-1-oxo-2,3-dihydro-1H-isoindol-2-yl}piperidine-2,6-dione] | 50 to 70 | < 10 | –
7 | COc1c(N2CCC(N3CC(F)(CC4CCN(c5cc(-c6[nH]nc7ccc(OC8(C)CC8)cc67)ncn5)CC4)C3)CC2)ccc2c1CN(C1CCC(=O)NC1=O)C2=O (stereo not shown) [Compound 345, 3-(5-(4-(3-fluoro-3-((1-(6-(5-(1-methylcyclopropoxy)-2H-indazol-3-yl)pyrimidin-4-yl)piperidin-4-yl)methyl)azetidin-1-yl)piperidin-1-yl)-4-methoxy-1-oxoisoindolin-2-yl)piperidine-2,6-dione] | 50 to 70 | < 10 | –
8 | CC1(Oc2ccc3[nH]nc(-c4cc(N5CCC(CN6CCC(F)(CC7CCN(c8ccc9c(c8F)CN(C8CCC(=O)NC8=O)C9=O)CC7)CC6)CC5)ncn4)c3c2)CC1 (stereo not shown) [Compound 231, 3-[4-fluoro-5-[4-[[4-fluoro-1-[[1-[6-[5-(1-methylcyclopropoxy)-1H-indazol-3-yl]pyrimidin-4-yl]-4-piperidyl]methyl]-4-piperidyl]methyl]-1-piperidyl]-1-oxo-isoindolin-2-yl]piperidine-2,6-dione] | – | – | DC50 [3]: < 10 nM; Dmax [4]: 50 to 70%
9 | CC1(Oc2cc3c(-c4cc(N5CCC(CN6CCC(F)(CN7CCN(c8cc9c(cc8F)C(=O)N(C8CCC(=O)NC8=O)C9)CC7)CC6)CC5)ncn4)[nH]nc3cc2F)CC1 (stereo not shown) [Compound 193, 3-[6-fluoro-5-[4-[[4-fluoro-1-[[1-[6-[6-fluoro-5-(1-methylcyclopropoxy)-2H-indazol-3-yl]pyrimidin-4-yl]-4-piperidyl]methyl]-4-piperidyl]methyl]piperazin-1-yl]-1-oxo-isoindolin-2-yl]piperidine-2,6-dione] | – | – | Dmax [5]: ≥ 70%; DC50 [6]: < 10 nM
10 | CC1(Oc2cc3c(-c4cc(N5CCC(CN6CCN(CC7CCN(c8ccc9c(c8F)CN(C8CCC(=O)NC8=O)C9=O)CC7)CC6)CC5)ncn4)n[nH]c3cn2)CC1 (stereo not shown) [Compound 201, 3-(4-fluoro-5-(4-((4-((1-(6-(5-(1-methylcyclopropoxy)-1H-pyrazolo[3,4-c]pyridin-3-yl)pyrimidin-4-yl)piperidin-4-yl)methyl)piperazin-1-yl)methyl)piperidin-1-yl)-1-oxoisoindolin-2-yl)piperidine-2,6-dione] | – | – | Dmax [5]: ≥ 70%; DC50 [6]: < 10 nM
11 | CC1(Oc2ccc3n[nH]c(-c4cc(N5CCN(C[C@H]6C[C@H](OC7CCN(c8ccc9c(c8F)CN(C8CCC(=O)NC8=O)C9=O)CC7)C6)CC5)ncn4)c3c2)CC1 (stereo partly shown) [Compound 300, 3-(4-fluoro-1-oxo-5-{4-[(1r,3r)-3-[(4-{6-[5-(1-methylcyclopropoxy)-2H-indazol-3-yl]pyrimidin-4-yl}piperazin-1-yl)methyl]cyclobutoxy]piperidin-1-yl}-2,3-dihydro-1H-isoindol-2-yl)piperidine-2,6-dione] | 50 to 70 | < 10 | –
12 | Cc1c(N2CCC(O[C@H]3CC[C@H](CN4CCN(c5cc(-c6n[nH]c7ccc(OC8(C)CC8)cc67)ncn5)CC4)CC3)CC2)ccc2c1CN(C1CCC(=O)NC1=O)C2=O (stereo partly shown) [Compound 333, 3-(4-methyl-5-(4-(((1r,4r)-4-((4-(6-(5-(1-methylcyclopropoxy)-1H-indazol-3-yl)pyrimidin-4-yl)piperazin-1-yl)methyl)cyclohexyl)oxy)piperidin-1-yl)-1-oxoisoindolin-2-yl)piperidine-2,6-dione] | 50 to 70 | < 10 | –
13 | COc1c(N2CCC(CN3C[C@@H](C)N(CC4CCN(c5cc(-c6n[nH]c7ccc(OC8(C)CC8)cc67)ncn5)CC4)[C@@H](C)C3)CC2)ccc2c1CN(C1CCC(=O)NC1=O)C2=O (stereo partly drawn) [Compound 287, 3-[5-(4-{[(3R,5S)-3,5-dimethyl-4-[(1-{6-[5-(1-methylcyclopropoxy)-1H-indazol-3-yl]pyrimidin-4-yl}piperidin-4-yl)methyl]piperazin-1-yl]methyl}piperidin-1-yl)-4-methoxy-1-oxo-2,3-dihydro-1H-isoindol-2-yl]piperidine-2,6-dione] | 50 to 70 | < 10 | –
14 | CC1(Oc2ccc3n[nH]c(-c4cc(N5CCC(O[C@H]6CC[C@H](OC7CCN(c8ccc9c(c8F)CN(C8CCC(=O)NC8=O)C9=O)CC7)CC6)CC5)ncn4)c3c2)CC1 (stereo partly shown) [Compound 228, 3-[4-fluoro-5-[4-[4-[[1-[6-[5-(1-methylcyclopropoxy)-2H-indazol-3-yl]pyrimidin-4-yl]-4-piperidyl]oxy]cyclohexoxy]-1-piperidyl]-1-oxo-isoindolin-2-yl]piperidine-2,6-dione] | – | – | DC50 [3]: 10 to 50 nM; Dmax [4]: 50 to 70%
15 | C[C@H]1CN(c2cc(-c3[nH]nc4ccc(OC5(C)CC5)cc34)ncn2)CCN1CCN1CCC(CN2CCN(c3ccc4c(c3F)CN(C3CCC(=O)NC3=O)C4=O)CC2)CC1 (stereo partly drawn) [Compound 184, 3-[4-fluoro-5-[4-[[1-[2-[(2S)-2-methyl-4-[6-[5-(1-methylcyclopropoxy)-2H-indazol-3-yl]pyrimidin-4-yl]piperazin-1-yl]ethyl]-4-piperidyl]methyl]piperazin-1-yl]-1-oxo-isoindolin-2-yl]piperidine-2,6-dione] | – | – | Dmax [5]: ≥ 70%; DC50 [6]: < 10 nM
16 | CC1(Oc2ccc3[nH]nc(-c4cc(N5CCN(CCN6CCC7(CN(c8ccc9c(c8F)CN(C8CCC(=O)NC8=O)C9=O)C7)C(F)(F)C6)CC5)ncn4)c3c2)CC1 (stereo not shown) [Compound 336, 3-(5-{5,5-difluoro-7-[2-(4-{6-[5-(1-methylcyclopropoxy)-1H-indazol-3-yl]pyrimidin-4-yl}piperazin-1-yl)ethyl]-2,7-diazaspiro[3.5]nonan-2-yl}-4-fluoro-1-oxo-2,3-dihydro-1H-isoindol-2-yl)piperidine-2,6-dione] | 50 to 70 | < 10 | –
17 | COc1c(N2CCC(CN3CCN(CC4CCN(c5cc(-c6n[nH]c7ccc(OC8(C)CC8)cc67)ncn5)CC4)[C@@H](C)C3)CC2)ccc2c1CN(C1CCC(=O)NC1=O)C2=O (stereo partly drawn) [Compound 256, 3-[4-methoxy-5-(4-{[(3S)-3-methyl-4-[(1-{6-[5-(1-methylcyclopropoxy)-1H-indazol-3-yl]pyrimidin-4-yl}piperidin-4-yl)methyl]piperazin-1-yl]methyl}piperidin-1-yl)-1-oxo-2,3-dihydro-1H-isoindol-2-yl]piperidine-2,6-dione] | – | – | DC50 [3]: < 10 nM; Dmax [4]: 50 to 70%
